Consider 2 compounds from ChEMBL document CHEMBL1133993, “Chemical synthesis of UDP-beta-L-arabinofuranose and its turnover to UDP-beta-L-arabinopyranose by UDP-galactopyranose mutase” (Bioorg Med Chem Lett, 2001).

This experiment concerns Escherichia coli. The experiment can be described thus: Kinetic constant using the compound as substrate was determined against Escherichia coli UDP-galactopyranose mutase.

As usually defined, the Km is the concentration of substrate that gives half-maximal velocity. For the compound `O=c1ccn(C2O[C@H](COP(=O)(O)OP(=O)(O)OC3O[C@H]([C@H](O)CO)[C@H](O)[C@H]3O)[C@@H](O)[C@H]2O)c(=O)[nH]1` (some centres undefined), the Km was found to be 22 µM and the k cat was found to be 27 s⁻¹.

For the compound `O=c1ccn([C@@H]2O[C@H](COP(=O)(O)OP(=O)(O)O[C@H]3O[C@@H](CO)[C@H](O)[C@H]3O)[C@@H](O)[C@H]2O)c(=O)[nH]1`, the Km is 600 µM and the k cat worked out at 12 s⁻¹.
